Laboratory results taken from PubChem BioAssay (NCI).
“And” between values parts separate entries of the source, which are not always exact repeats. Equal entries are not always repeated.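 Five compound concentrations were applied to cells in 96-well plates for 48 hours; endpoints were derived by simple linear interpolation of the resulting dose-response curve. Here, GI50 denotes the concentration required for 50% inhibition of growth. Definition used: TGI = concentration required for complete inhibition of growth.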

Assays:
Assay in all cases: NCI-60 cell line screen, 48 h
HS 578T breast = test system: HS 578T breast
LOX IMVI melanoma = test system: LOX IMVI melanoma
NCI-H226 lung = test system: NCI-H226 lung
NCI/ADR-RES ovarian = test system: NCI/ADR-RES ovarian
OVCAR-5 ovarian = test system: OVCAR-5 ovarian
SK-MEL-28 melanoma = test system: SK-MEL-28 melanoma
SK-MEL-5 melanoma = test system: SK-MEL-5 melanoma
SW-620 colon = test system: SW-620 colon
TK-10 renal = test system: TK-10 renal
EKVX NSCLC = test system: EKVX NSCLC

Structure (SMILES) | GI50 (HS 578T breast) [µM] | TGI (HS 578T breast) [µM] | GI50 (LOX IMVI melanoma) [µM] | TGI (LOX IMVI melanoma) | GI50 (NCI-H226 lung) [µM] | TGI (NCI-H226 lung) [µM] | GI50 (NCI/ADR-RES ovarian) [µM] | TGI (NCI/ADR-RES ovarian) [µM] | GI50 (OVCAR-5 ovarian) [µM] | TGI (OVCAR-5 ovarian) [µM] | GI50 (SK-MEL-28 melanoma) [µM] | TGI (SK-MEL-28 melanoma) [µM] | GI50 (SK-MEL-5 melanoma) [µM] | TGI (SK-MEL-5 melanoma) [µM] | GI50 (SW-620 colon) [µM] | TGI (SW-620 colon) | GI50 (TK-10 renal) [µM] | TGI (TK-10 renal) [µM] | TGI (EKVX NSCLC) [µM] | GI50 (EKVX NSCLC) [µM]
O=C1Nc2ccc(Cl)cc2/C1=C\c1c(-c2ccc(Cl)cc2)nc2sc(C3CC3)nn12 | 2.31 | 6.85 | 3.15 | 10.7 µM | 1.7 | 4.68 | 2.85 | 10.2 | 11.7 | 42.6 | 3.49 | 13.7 | 3.2 | 13 | 7.65 | 55 µM | 3.1 | 7.97 |  | 
O=C1c2ccccc2C(=O)c2cc3c(cc21)CS(=O)C3 |  |  |  | > 100 µM |  |  |  |  |  | > 100 |  | > 100 |  | > 100 |  | > 100 µM |  | > 100 | > 100 | 
N#CCCn1[nH]c(=O)c(Cl)c(Cl)c1=O |  |  |  | 28.3 µM |  | 49.4 |  |  |  | 32.8 |  | 30.9 |  |  |  | 31.8 µM |  | 68.4 | 12.5 | 
CC(C)(C)c1cc(CCC(=O)Nc2ccc(Cl)cc2)[nH]c(=S)n1 |  |  |  | > 100 µM |  | > 100 |  |  |  | > 100 |  | > 100 |  | > 100 |  | > 100 µM |  | > 100 | > 100 | 
O=S1(=O)N2CN3CN(C2)CN1C3 |  |  | 25.2 | > 79.1 µM and 67.5 µM |  | 188 |  |  |  | 362 | 40.6 | 225 |  | 124 |  | 57.8 µM and 113 µM |  | 692 | 823 | 
COc1cc([N+](=O)[O-])c(OC)cc1-c1nc2sc(C)c(C)n2c1/C(N)=N/C(=N)N |  |  |  |  |  |  | > 100 | > 100 | > 100 | > 100 | > 100 | > 100 | 8.14 | > 100 | 9.8 | > 100 µM | > 100 | > 100 | > 100 | > 100
CC(=O)C1CCN(c2ccccc2)C1 (centres undefined) |  |  |  |  |  | > 100 |  |  |  | > 100 |  | > 100 |  | > 100 |  | > 100 µM |  | > 100 | > 100 | 
CCOC(=O)C(C)(NC(=O)c1ccc(NCc2ccc3nc(NC(=O)c4ccccc4)nc(NC(=O)c4ccccc4)c3c2)cc1)C(=O)OCC |  |  |  | 34.1 µM |  | 28.4 |  |  |  | > 100 |  | 27.6 |  | 22.7 |  | > 100 µM |  | 48.9 | 39.5 | 
O=C1C(c2ccccc2)=C(c2ccccc2)C(c2ccc(Cc3ccc(C4=C(c5ccccc5)C(=O)C(c5ccccc5)=C4c4ccccc4)cc3)cc2)=C1c1ccccc1 |  |  |  | > 100 µM |  | > 100 |  |  |  | > 100 |  |  |  | > 100 |  | > 100 µM |  | > 100 | > 100 | 
c1cc(N[C@@H]2CCNC2)nc(-c2cnc3ccc(-c4cn[nH]c4)cn23)c1 | 1.69 | 5.54 | 3.24 | 15.1 µM | 4.13 | > 100 | > 100 | > 100 | 6.06 | > 95.4 | 4.35 | 16.9 | 14.1 | 39.4 | 6.83 | 52.1 µM | 15.3 | 62.8 |  | 
